Assay results: article PMC10888562 (International Journal of Molecular Sciences, 2024)
“And” between values parts separate entries of the source, which are not always exact repeats. Equal values may be shown once. Read-outs that look alike come from different tables or passages of the source.

Experiments:
[1] = system: HT29 colon cells; assay: TMRE mitochondrial membrane potential (MtMP) assay; type: cell-based, human; conditions: GI50 drug concentration (FCCP 20 μM)
Protocol: This was achieved by determining if the overproduction of ROS induced by these complexes impacts mitochondrial activity by altering MtMP. Briefly, there is evidence showing a strong correlation between increased levels of ROS and mitochondrial impairment. […] The MtMP changes recorded are measured as RFU. […] To investigate the MtMP changes in HT29 treated cells, a TMRE-MtMP Assay Kit (Abcam, Cambridge, MA, USA) was used, as previously described. In 96-well plates, 25,000 cells/mL of HT29 colon cells in DMEM were seeded. Cells were treated with a GI50 drug concentration for each complex. At 24, 48 or 72 h, cells were washed with PBS and stained with tetramethylrhodamine, ethyl ester (TMRE) (1 μM) and incubated for 30 min. TMRE was then removed, and cells were then re-washed with PBS (0.2% BSA), after which phenol red free media was added. The plates were directly scanned to measure fluorescence (expressed as RFU), using the Glo-Max®-Multimode microplate reader (Promega Corporation, Alexandra, VIC, Australia) at an excitation/emission of 549/575 nm. For the positive control, 20 μM carbonyl cyanide 4-(trifluoromethoxy) phenylhydrazone (FCCP)) was added to the cells and incubated for 10 min. The cells were washed with PBS (0.2% BSA) and stained with TMRE (1 μM) for 30 min; this was removed, and phenol red free media was added, and the final solution was scanned as mentioned above.

[2] = system: histone deacetylase (HDAC); assay: Fluorometric HDAC activity assay on extracts of treated HT29 cells; type: cell-based, human; conditions: HT29 colon cells treated 72 h at GI50 concentration, lower RFU = decline in HDAC activity, HT29 extract control 5154 ± 40
Protocol: All values are expressed as RFU.
To study the HDAC activity in HT29 treated cells, a Fluorometric HDAC Activity Assay Kit ab156064 (Abcam, Cambridge, MA, USA) was used and all sample preparations were made based on the manufacturer’s protocol. A total of 10^6 cells/mL of HT29 cells were seeded in DMEM with serum deprivation for 18 h to synchronise the cells. […] Cells were then washed with cold PBS and resuspended in lysis buffer (10 mM Tris HCl (pH 7.5), 10 mM NaCl, 15 mM MgCl2, 250 mM sucrose, 0.5% NP-40 and 0.1 mM EGTA) and lysed on ice for 20 min. Cells were centrifuged through 4 mL of sucrose cushion (30% sucrose, 10mM Tris HCl (pH 7.5), 10 mM NaCl and 3mM MgCl2) at 1300× g for 10 min at 4 °C. Supernatant was discarded and the pellet was washed and resuspended in extraction buffer (50 mM HEPES-KOH (pH 7.5), 420 mM NaCl, 0.5 mM EDTA 2Na, 0.1 mM EGTA and 10% glycerol) and then sonicated for 30 s. Nuclei were lysed for 30 min on ice and centrifuged at 20,000× g for 30 min. The supernatant was collected, and the samples were prepared for the fluorometric assay according to the manufacturer’s protocol (Histone Deacetylase (HDAC) Activity Assay Fluorometric Kit ab156064, Abcam). The changes in the relative fluorescence intensity (expressed as RFU) were recorded each minute over 60 min using the Glo-Max®-Multimode microplate reader (Promega Corporation, Alexandra, VIC, Australia) at an excitation/emission of 355/460 nm.

[3] = system: HT29 colon; set-up: method as in PMID 36142383, PMID 37173934, PMID 36296713; conditions: cited from earlier work
[4] = system: U87 glioblastoma; set-up: method as in PMID 36142383, PMID 37173934, PMID 36296713; conditions: cited from earlier work
[5] = system: H460 lung; set-up: method as in PMID 36142383, PMID 37173934, PMID 36296713; conditions: cited from earlier work
[6] = system: A431 skin; set-up: method as in PMID 36142383, PMID 37173934, PMID 36296713; conditions: cited from earlier work
[7] = system: Du145 prostate; set-up: method as in PMID 36142383, PMID 37173934, PMID 36296713; conditions: cited from earlier work
[8] = system: BE2-C neuroblastoma; set-up: method as in PMID 36142383, PMID 37173934, PMID 36296713; conditions: cited from earlier work
[9] = system: SJ-G2 glioblastoma; set-up: method as in PMID 36142383, PMID 37173934, PMID 36296713; conditions: cited from earlier work
[10] = system: MIA pancreas; set-up: method as in PMID 36142383, PMID 37173934, PMID 36296713; conditions: cited from earlier work
[11] = system: A2780 ovarian; set-up: method as in PMID 36142383, PMID 37173934, PMID 36296713; conditions: cited from earlier work
[12] = system: cisplatin-resistant ADDP ovarian variant; set-up: method as in PMID 36142383, PMID 37173934, PMID 36296713; conditions: cited from earlier work
[13] = system: MCF-7 breast; set-up: method as in PMID 36142383, PMID 37173934, PMID 36296713; conditions: cited from earlier work
[14] = system: non-tumour-derived MCF10A breast line; set-up: method as in PMID 36142383, PMID 37173934, PMID 36296713; conditions: cited from earlier work
[15] = system: multiple human cell lines; set-up: method as in PMID 36142383, PMID 37173934, PMID 36296713; conditions: average over all cell lines; cited from earlier work
[16] = system: HT29 colon cells; set-up: method as in PMID 36142383, PMID 37173934, PMID 36296713; conditions: cited from earlier work
[17] = system: HT29 colon cells; assay: DCFDA cellular ROS production assay; type: cell-based, human; conditions: GI50 drug concentration (TBHP 20 μM)
Protocol: All values are expressed as relative fluorescence units (RFU).
To evaluate the presence of ROS in treated cells, a DCFDA/H2DCFDA-cellular ROS Assay Kit (Abcam, Cambridge, MA, USA) was used, as previously described. A total of 25,000 cells/mL of HT29 cells in DMEM were seeded in 96-well plates. Cells were washed with 1X kit buffer, and then stained with 25 μM 2′,7′-dichlorofluorescein diacetate (DCFH-DA) and incubated for 45 min. DCFH-DA was then removed, and cells were then re-washed with 1X kit buffer, after which phenol red free media was added. Cells were then treated with a GI50 drug concentration for each complex. The plates were directly scanned to measure fluorescence (relative fluorescence units (RFU)) at the time points indicated the Glo-Max®-Multimode microplate reader (Promega Corporation, Alexandra, VIC, Australia) at an excitation/emission of 485/535 nm, which is directly correlated to the DCFH-DA that is deacetylated by cellular esterases and then oxidised by ROS to the fluorescent compound DCF. To generate the positive control (20 μM tert-butyl hydroperoxide (TBHP)), cells were washed with 1X kit buffer, and stained with DCFDA (25 μM) for 45 min; this was removed and TBHP was added in phenol red free media, and the resulting solution was scanned as described above.

Compound	MtMP Changes ([1]; 24 h, control 542 ± 4)	MtMP Changes ([1]; 48 h, control 507 ± 11)	MtMP Changes ([1]; 72 h, control 449 ± 10)	HDAC Inhibition at 72 h [2]	GI50 [3]	GI50 [4]	GI50 [5]	GI50 [6]	GI50 [7]	GI50 [8]	GI50 [9]	GI50 [10]	GI50 [11]	GI50 [12]	GI50 [13]	GI50 [14]	GI50 [15]	ROS Production ([16]; 24 h)	ROS Production ([16]; 48 h)	ROS Production ([16]; 72 h)	also measured
Cc1cc2cccnc2c2ncccc12.N[C@H]1CCCC[C@@H]1N.[OH][Pt+2][OH] [5MESS(IV)(OH)2]	311 ± 3 RFU	291 ± 9 RFU	228 ± 7 RFU	3119 ± 9 RFU	60 ± 6 nM	900 ± 58 nM	60 ± 5 nM	360 ± 58 nM	41 ± 5 nM	1400 ± 300 nM	640 ± 70 nM	160 ± 29 nM	240 ± 9 nM	130 ± 22 nM	1200 ± 390 nM	130 ± 19 nM	443 ± 81 nM	234 ± 1 RFU	323 ± 9 RFU	335 ± 2 RFU	–
Cc1c(C)c2cccnc2c2ncccc12.N[C@H]1CCCC[C@@H]1N.[OH][Pt+2][OH] [56MESS(IV)(OH)2]	291 ± 9 RFU	221 ± 5 RFU	188 ± 5 RFU	3011 ± 23 RFU	36 ± 7 nM	190 ± 23 nM	190 ± 150 nM	120 ± 22 nM	15 ± 2.6 nM	240 ± 22 nM	210 ± 45 nM	43 ± 2.5 nM	59 ± 7 nM	170 ± 120 nM	480 ± 140 nM	61 ± 7 nM	151 ± 50 nM	259 ± 3 RFU	356 ± 11 RFU	438 ± 7 RFU	–
O=C1[O][Pt]2([NH][C@@H]3CCCC[C@H]3[NH]2)[O]C1=O (relative stereo) [Oxaliplatin, trans-L(1R,2R-diaminocyclohexane) oxalatoplatinum(II)]	–	–	–	–	900 ± 200 nM	1800 ± 200 nM	1600 ± 100 nM	4100 ± 500 nM	2900 ± 400 nM	900 ± 200 nM	3000 ± 1200 nM	900 ± 200 nM	160 ± 100 nM	800 ± 100 nM	500 ± 100 nM	–	1460 ± 320 nM	–	–	–	–
N#CC(C#N)=NNc1ccc(OC(F)(F)F)cc1 [FCCP, carbonyl cyanide 4-(trifluoromethoxy) phenylhydrazone]	234 ± 3 RFU	151 ± 7 RFU	84 ± 5 RFU	–	–	–	–	–	–	–	–	–	–	–	–	–	–	–	–	–	–
Cc1cc2cccnc2c2ncccc12.N[C@H]1CCCC[C@@H]1N.[Pt+2] [5MESS, [Pt^II(5-Mephen)(SS-DACH)]^2+]	283 ± 4 RFU	261 ± 9 RFU	189 ± 11 RFU	2124 RFU and 2124 ± 21 RFU	33 ± 4 nM	320 ± 26 nM	41 ± 5 nM	120 ± 25 nM	22 ± 3 nM	270 ± 38 nM	220 ± 10 nM	48 ± 2 nM	61 ± 10 nM	34 ± 2 nM	200 ± 12 nM	30 ± 2 nM	117 ± 12 nM	204 ± 4 RFU	205 ± 3 RFU	188 ± 3 RFU	–
CC(/C=C/C(=O)NO)=C\[C@@H](C)C(=O)c1ccc(N(C)C)cc1 [Trichostatin A (TSA), Trichostatin A]	–	–	–	749 ± 8 RFU	–	–	–	–	–	–	–	–	–	–	–	–	–	–	–	–	HDAC Inhibition at 72 h ([2]; listed as TSA): 749 RFU
N[C@H]1CCCC[C@@H]1N.[OH][Pt+2][OH].c1cnc2c(c1)ccc1cccnc12 [PHENSS(IV)(OH)2]	328 ± 7 RFU	314 ± 6 RFU	234 ± 11 RFU	4107 ± 19 RFU	710 ± 300 nM	4900 ± 610 nM	1700 ± 200 nM	4300 ± 530 nM	310 ± 92 nM	3000 ± 530 nM	1700 ± 350 nM	3400 ± 2200 nM	800 ± 84 nM	1300 ± 350 nM	16000 nM	1700 ± 200 nM	3320 ± 880 nM	144 ± 5 RFU	273 ± 4 RFU	303 ± 1 RFU	–
CC(C)(C)OO [TBHP, tert-butyl hydroperoxide]	–	–	–	–	–	–	–	–	–	–	–	–	–	–	–	–	–	–	–	–	ROS Production ([17]; 24 h, control 60 ± 3): 614 ± 21 RFU; ROS Production ([17]; 48 h, control 63 ± 4): 477 ± 23 RFU; ROS Production ([17]; 72 h, control 85 ± 6): 311 ± 18 RFU
N.N.O=C([O-])C1(C(=O)[O-])CCC1.[Pt+2] [Carboplatin, cis-diammine(1,1-cyclobutanecarboxylato)platinum(II)]	–	–	–	–	> 50000 nM	> 50000 nM	14000 nM	24000 nM	15000 nM	19000 nM	5700 ± 200 nM	> 50000 nM	9200 ± 2900 nM	> 50000 nM	> 50000 nM	> 50000 nM	32200 nM	–	–	–	–
